For 16 compounds, TGI and GI50 results are on record in PubChem BioAssay (NCI).

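Step 1: Grow cells in 96-well plates. Step 2: Expose to compound for 48 hours at 5 concentrations. Step 3: Interpolate endpoints linearly; if unreached, use highest concentration. At the GI50, growth is halved. The concentration for full growth arrest is given as TGI.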

Among the test systems are SNB-19 CNS; DU-145 prostate; EKVX NSCLC; ACHN renal; CAKI-1 renal; SW-620 colon; SK-MEL-5 melanoma; BT-549 breast; UACC-62 melanoma; RXF 393 renal.
Assay in all cases: growth of human tumour cells (NCI), 48 h

Turning to `O=C(Nc1ccccc1)N(C1=NCC(CI)S1)c1ccc(F)c(F)c1` (centres undefined), the TGI in the test with SNB-19 CNS, in the test on DU-145 prostate, in the test with EKVX NSCLC, in the test on ACHN renal, in the test on CAKI-1 renal and in the test with SW-620 colon was above 100 µM in each case. The TGI in the test with SK-MEL-5 melanoma amounted to 37.2 µM.
With `CN1CCC(CNc2cc(C3(C(=O)Nc4cc(C(=O)Nc5ccc(Cl)c(C(F)(F)F)c5)ccc4F)CC3)ncn2)CC1`, the GI50 with BT-549 breast was 3.01 µM; in the test with DU-145 prostate, 3.99 µM; in the test on EKVX NSCLC it was 2.46 µM; with ACHN renal, 2.16 µM; in the test with SW-620 colon it was 2.54 µM. The TGI in the test on BT-549 breast was determined as 9.89 µM; with DU-145 prostate it was 15.8 µM; with EKVX NSCLC, 6.62 µM; in the test on ACHN renal it was 4.98 µM; in the test on SW-620 colon, 5.32 µM.
Turning to `O=c1[nH]c2nc3ccccc3c(=O)n2/c1=C/c1ccc(Cl)cc1`, the TGI is above 100 µM with UACC-62 melanoma; 46.2 µM in the test on BT-549 breast; 79.8 µM in the test on SNB-19 CNS; above 100 µM with DU-145 prostate; above 100 µM with ACHN renal; above 100 µM in the test on CAKI-1 renal. For the same compound, the TGI was above 100 µM in the test with RXF 393 renal and 59.7 µM in the test on SW-620 colon.
For the compound `CCCCCOc1ccc(C=Nc2ccc(CCc3ccc(N=Cc4ccc(OCCCCC)cc4)cc3)cc2)cc1`, the TGI with UACC-62 melanoma, in the test on SNB-19 CNS, in the test with EKVX NSCLC, in the test with RXF 393 renal, in the test with SW-620 colon and in the test with SK-MEL-5 melanoma was above 100 µM in each case.
With `CNC(C)(C)Cc1ccc(Cl)cc1`, the TGI in the test on UACC-62 melanoma, in the test with EKVX NSCLC, in the test with ACHN renal, with CAKI-1 renal, in the test with RXF 393 renal and with SW-620 colon was above 100 µM throughout. Besides, the TGI with SK-MEL-5 melanoma was above 100 µM.
Turning to `c1ccc(-c2csc3c4ccccc4c4ccccc4[n+]23)cc1`, the TGI with UACC-62 melanoma is 5.27 µM; with SNB-19 CNS it was 7.52 µM; in the test with EKVX NSCLC, 31.8 µM; in the test on ACHN renal, 30.6 µM; in the test on CAKI-1 renal it was above 36 µM; with RXF 393 renal, 26.7 µM. Further, the TGI in the test on SW-620 colon worked out at 17.4 µM; in the test with SK-MEL-5 melanoma, 2.86 µM.
As for `[N-]=[N+]=Nc1c(Cc2ccccc2)c(Cl)nc2ccccc12`, the TGI is 68.8 µM in the test with UACC-62 melanoma; 83.1 µM in the test with SNB-19 CNS; above 100 µM in the test with DU-145 prostate; above 100 µM in the test with EKVX NSCLC; above 100 µM in the test with ACHN renal; 92.3 µM with CAKI-1 renal. The TGI with RXF 393 renal is 39.6 µM; with SW-620 colon it was above 100 µM; in the test on SK-MEL-5 melanoma, 30 µM.
As to `Cc1ccc(C)c(NC(=O)C(=O)C(C(=O)c2ccc3ccccc3c2)C2OC(=O)c3ccccc32)c1` (centres undefined), the TGI with UACC-62 melanoma was found to be 27.8 µM; in the test on SNB-19 CNS, 31.2 µM; in the test with EKVX NSCLC, 51.1 µM; in the test on ACHN renal it was 87.1 µM; in the test with CAKI-1 renal, 52.6 µM; in the test on RXF 393 renal it was 9.74 µM. Besides, the TGI was found to be 29.4 µM in the test on SW-620 colon and 31.5 µM with SK-MEL-5 melanoma.
For the compound `O=C(Nc1ccccc1F)c1cc2ccc(O)cc2oc1=Nc1cccc(F)c1`, the TGI in the test on UACC-62 melanoma was 29.6 µM; in the test on BT-549 breast, 39.4 µM; with SNB-19 CNS, above 100 µM; in the test on DU-145 prostate, 40.5 µM; with EKVX NSCLC it was 35.2 µM; in the test on ACHN renal, 29.5 µM. In addition, the TGI with CAKI-1 renal was 40.6 µM; in the test on SW-620 colon, 32.6 µM; with SK-MEL-5 melanoma, 18 µM.
In the case of `O=c1[nH]/c(=C/c2ccc(OCc3ccccc3)cn2)c(=O)[nH]/c1=C/c1ccccc1`, the TGI in the test with UACC-62 melanoma, in the test with BT-549 breast, in the test with SNB-19 CNS, in the test with EKVX NSCLC, with ACHN renal and with CAKI-1 renal was above 100 µM throughout. Also, the TGI in the test on RXF 393 renal and in the test with SW-620 colon was above 100 µM throughout.
For `C#CCNC(CSSCC(N)C(=O)O)C(=O)O` (centres undefined), the TGI in the test with UACC-62 melanoma, in the test with SNB-19 CNS, in the test on DU-145 prostate, with EKVX NSCLC, in the test on ACHN renal and with CAKI-1 renal was above 100 µM in each case. Further, the TGI in the test on RXF 393 renal, in the test on SW-620 colon and in the test with SK-MEL-5 melanoma was above 100 µM each time.
Consider `c1ncn(C23C4C5C6C4C2C6C53)n1` (centres undefined), for which the TGI in the test with SNB-19 CNS, with DU-145 prostate, with EKVX NSCLC, with ACHN renal, in the test with SW-620 colon and in the test on SK-MEL-5 melanoma was above 100 µM each time.
As to `COc1cc(C2c3c(ccc4ccccc34)C(=O)C3CCC(=O)N32)cc(OC)c1OC` (centres undefined), the TGI in the test on UACC-62 melanoma, with BT-549 breast, in the test on SNB-19 CNS, in the test on DU-145 prostate, in the test with EKVX NSCLC and with ACHN renal was above 50 µM in each case. Also, the TGI with CAKI-1 renal, in the test with RXF 393 renal and with SW-620 colon was above 50 µM each time.
Regarding `CSc1ncc2c(n1)C(C#N)C1Sc3ccccc3N1C2=O` (centres undefined), the TGI in the test with BT-549 breast, in the test with SNB-19 CNS, in the test on DU-145 prostate, with EKVX NSCLC, with ACHN renal and in the test with CAKI-1 renal was above 100 µM each time. For the same compound, the TGI in the test on RXF 393 renal, with SW-620 colon and in the test with SK-MEL-5 melanoma was above 100 µM each time.
Consider `CC(=O)NC1C(OCc2ccccc2)OC(CO)C(O)C1OCC(=O)N1CCCC1C(=O)N[C@@H](CCC(=O)NCCCCNc1c2ccccc2nc2cccc([N+](=O)[O-])c12)C(N)=O` (some centres undefined), for which the TGI in the test with BT-549 breast is 43.7 µM; in the test on SNB-19 CNS, 62.4 µM; in the test on DU-145 prostate it was above 100 µM; in the test on EKVX NSCLC, above 100 µM; in the test on ACHN renal it was above 100 µM; in the test on CAKI-1 renal, above 100 µM. The TGI in the test on SW-620 colon is 65.7 µM.
Turning to `Cc1cc([NH-])c([NH-])cc1C.[Cl][Pt+2][Cl]`, the GI50 is 8.88 µM in the test on UACC-62 melanoma; 10.5 µM in the test on SNB-19 CNS; 19.7 µM in the test with EKVX NSCLC; 12 µM in the test with CAKI-1 renal; 16.3 µM in the test on RXF 393 renal; 5.06 µM with SW-620 colon. Also, in the test on SK-MEL-5 melanoma, the GI50 is 9.48 µM. Besides, the TGI with UACC-62 melanoma was 27.3 µM; in the test with SNB-19 CNS, above 100 µM; with EKVX NSCLC, 46.7 µM; in the test with CAKI-1 renal, 27.6 µM; with RXF 393 renal, 31.1 µM; in the test with SW-620 colon, 27 µM. This compound also registered a TGI with SK-MEL-5 melanoma of 25.3 µM.
